Assay results published in patent US12678446B2 (PFIZER INC., priority 2020, dated 2026).

Experiments:
[1] = tested on: RSV (RSV A2 ECACC, 0709161v); experiment: RSV plaque reduction assay; type: cell-based, respiratory syncytial virus; details: human respiratory syncytial virus, HepG2, read-out: RSV A2 Plaque EC50, RSV A2 in Hep-G2 cells; mean of at least two experiments unless noted (n = 1)
Summary of the method: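 Eight-point compound dilutions were premixed with RSV A2 (100 PFU/well) and applied to confluent Hep-G2 cells for 2 h, followed by a 2-day incubation at 37° C. under compound-containing 0.8% CMC overlay. EC50 comes from immunostained plaque counts relative to untreated virus wells, averaged over ≥2 runs.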

[2] = cell toxicity CC50; type: cell-based; details: human; Hep-G2 cells; mean of at least two experiments; read-out: Cell Cytotoxicity CC50

Compound: C[C@@H]1CCn2nc(C3CCN(S(C)(=O)=O)CC3)c(C(=O)N[C@H]3N=C(c4ccccc4)c4ccccc4NC3=O)c2O1 [Example 162, (5R)-5-Methyl-2-(1-methylsulfonylpiperi-din-4-yl)-N-[(3S)-2-oxo-5-phenyl-1,3-dihydro-1,4-benzodiazepin-3-yl]-6,7-dihydro-5H-pyrazolo[5,1-b][1,3]oxazine-3-carboxamide]
- EC50 [1]: 0.166 µM
- CC50 [2]: > 25 µM

Compound: CCN(CC)CC1COc2c(C(=O)N[C@H]3N=C(c4ccccc4)c4cccc(F)c4NC3=O)c(-c3ccccc3F)nn2C1 (stereo partly drawn) [Example 164, 6-(Diethylaminomethyl)-N-[(3S)-9-fluoro-2-oxo-5-phenyl-1,3-dihydro-1,4-benzodiazepin-3-yl]-2-(2-fluorophenyl)-6,7-dihydro-5H-pyrazolo[5,1-b][1,3]oxazine-3-carboxamide]
- EC50 [1]: 0.087 µM
- CC50 [2]: > 25 µM

Compound: C[C@@H]1CCn2nc(-c3cnn(CCN(C)C)c3)c(C(=O)N[C@H]3N=C(c4ccccc4)c4cccc(F)c4NC3=O)c2O1 [Example 165, (5R)-2-[1-[2-(Dimethylamino)ethyl]pyrazol-4-yl]-N-[(3S)-9-fluoro-2-oxo-5-phenyl-1,3-dihydro-1,4-benzodiazepin-3-yl]-5-methyl-6,7-dihydro-5H-pyrazolo[5,1-b][1,3]oxazine-3-carboxamide]
- EC50 [1]: 0.349 µM
- CC50 [2]: > 25 µM

Compound: CN(C)CC1CCn2nc(-c3ccccc3F)c(C(=O)N[C@H]3N=C(c4ccccc4)c4cccc(F)c4NC3=O)c2O1 (stereo partly drawn) [Example 166, 5-[(Dimethylamino)methyl]-N-[(3S)-9-fluoro-2-oxo-5-phenyl-1,3-dihydro-1,4-benzodiazepin-3-yl]-2-(2-fluorophenyl)-6,7-dihydro-5H-pyrazolo[5,1-b][1,3]oxazine-3-carboxamide]
- EC50 [1]: 0.201 µM
- CC50 [2]: > 25 µM

Compound: O=C(N[C@H]1N=C(c2ccccc2)c2cccc(F)c2NC1=O)c1c(-c2ccccc2F)nn2c1OC(CN1CCOCC1)CC2 (stereo partly drawn) [Example 167, N-[(3S)-9-fluoro-2-oxo-5-phenyl-1,3-dihydro-1,4-benzodiazepin-3-yl]-2-(2-fluorophenyl)-5-(morpholin-4-ylmethyl)-6,7-dihydro-5H-pyrazolo[5,1-b][1,3]oxazine-3-carboxamide]
- EC50 [1]: 0.091 µM
- CC50 [2]: > 25 µM

Compound: CN(CC1COc2c(C(=O)N[C@H]3N=C(c4ccccc4)c4cccc(F)c4NC3=O)c(-c3ccccc3F)nn2C1)C1CCOCC1 (stereo partly drawn) [Example 168, N-[(3S)-9-fluoro-2-oxo-5-phenyl-1,3-dihydro-1,4-benzodiazepin-3-yl]-2-(2-fluorophenyl)-6-[[methyl(oxan-4-yl)amino]methyl]-6,7-dihydro-5H-pyrazolo[5,1-b][1,3]oxazine-3-carboxamide]
- EC50 [1]: 0.104 µM
- CC50 [2]: > 25 µM

Compound: CN(CC1COc2c(C(=O)N[C@H]3N=C(c4ccccc4)c4cccc(F)c4NC3=O)c(-c3ccccc3F)nn2C1)C1COC1 (stereo partly drawn) [Example 169, N-[(3S)-9-fluoro-2-oxo-5-phenyl-1,3-dihydro-1,4-benzodiazepin-3-yl]-2-(2-fluorophenyl)-6-[[methyl(oxetan-3-yl)amino]methyl]-6,7-dihydro-5H-pyrazolo[5,1-b][1,3]oxazine-3-carboxamide]
- EC50 [1]: 0.114 µM
- CC50 [2]: > 25 µM

Compound: C[C@@H]1CCn2nc(-c3ccc(CN(C)C)cc3F)c(C(=O)N[C@H]3N=C(c4ccccc4)c4cccc(F)c4NC3=O)c2O1 [Example 170, (5R)-2-[4-[(Dimethylamino)methyl]-2-fluorophenyl]-N-[(3S)-9-fluoro-2-oxo-5-phenyl-1,3-dihydro-1,4-benzodiazepin-3-yl]-5-methyl-6,7-dihydro-5H-pyrazolo[5,1-b][1,3]oxazine-3-carboxamide]
- EC50 [1]: 0.06 µM
- CC50 [2]: > 25 µM

Compound: CN1CCN(CC2COc3c(C(=O)N[C@H]4N=C(c5ccccc5)c5cccc(F)c5NC4=O)c(-c4ccccc4F)nn3C2)CC1 (stereo partly drawn) [Example 172, N-[(3S)-9-fluoro-2-oxo-5-phenyl-1,3-dihydro-1,4-benzodiazepin-3-yl]-2-(2-fluorophenyl)-6-[(4-methylpiperazin-1-yl)methyl]-6,7-dihydro-5H-pyrazolo[5,1-b][1,3]oxazine-3-carboxamide]
- EC50 [1]: 0.235 µM
- CC50 [2]: > 19.9 µM

Compound: CCN(Cc1ccccc1)CC1COc2c(C(=O)N[C@H]3N=C(c4ccccc4)c4cccc(F)c4NC3=O)c(-c3ccccc3F)nn2C1 (stereo partly drawn) [Example 174, 6-[[Benzyl(ethyl)amino]methyl]-N-[(3S)-9-fluoro-2-oxo-5-phenyl-1,3-dihydro-1,4-benzodiazepin-3-yl]-2-(2-fluorophenyl)-6,7-dihydro-5H-pyrazolo[5,1-b][1,3]oxazine-3-carboxamide]
- EC50 [1]: 0.406 µM
- CC50 [2]: > 25 µM

Compound: COC1COc2c(C(=O)N[C@H]3N=C(c4ccccc4)c4cccc(F)c4NC3=O)c(-c3ccccc3F)nn2C1 (stereo partly drawn) [Example 175, 2-(2-Fluorophenyl)-6-methoxy-N-[(3S)-9-fluoro-2-oxo-5-phenyl-1,3-dihydro-1,4-benzodiazepin-3-yl]-6,7-dihydro-5H-pyrazolo[5,1-b][1,3]oxazine-3-carboxamide]
- EC50 [1]: 0.061 µM
- CC50 [2]: > 25 µM

Compound: CCc1ccc(-c2nn3c(c2C(=O)N[C@H]2N=C(c4ccccc4)c4ccccc4NC2=O)OCC2(CCC2)C3)cn1 [Example 176, 2-(6-Ethylpyridin-3-yl)-N-[(3S)-2-oxo-5-phenyl-1,3-dihydro-1,4-benzodiazepin-3-yl]spiro[5,7-dihydropyrazolo[5,1-b][1,3]oxazine-6,1′-cyclobutane]-3-carboxamide]
- EC50 [1]: 0.063 µM
- CC50 [2]: > 25 µM

Compound: CCc1ccc(-c2nn3c(c2C(=O)N[C@H]2N=C(c4ccccc4)c4cccc(F)c4NC2=O)OCC2(CCC2)C3)cn1 [Example 177, 2-(6-Ethylpyridin-3-yl)-N-[(3S)-9-fluoro-2-oxo-5-phenyl-1,3-dihydro-1,4-benzodiazepin-3-yl]spiro[5,7-dihydropyrazolo[5,1-b][1,3]oxazine-6,1′-cyclobutane]-3-carboxamide]
- EC50 [1]: 0.125 µM
- CC50 [2]: > 25 µM

Compound: CC(C)Nc1ccc(-c2nn3c(c2C(=O)N[C@H]2N=C(c4ccccc4)c4ccccc4NC2=O)OCC2(CC2)C3)cn1 [Example 178, 2-[6-(Propan-2-ylamino)pyridin-3-yl]-N-[(3S)-2-oxo-5-phenyl-1,3-dihydro-1,4-benzodiazepin-3-yl]spiro[5,7-dihydropyrazolo[5,1-b][1,3]oxazine-6,1′-cyclopropane]-3-carboxamide]
- EC50 [1]: 0.075 µM
- CC50 [2]: > 25 µM

Compound: CC(C)Nc1ccc(-c2nn3c(c2C(=O)N[C@H]2N=C(c4ccccc4)c4cccc(F)c4NC2=O)OCC2(CC2)C3)cn1 [Example 179, 2-[6-(Propan-2-ylamino)pyridin-3-yl]-N-[(3S)-9-fluoro-2-oxo-5-phenyl-1,3-dihydro-1,4-benzodiazepin-3-yl]spiro[5,7-dihydropyrazolo[5,1-b][1,3]oxazine-6,1′-cyclopropane]-3-carboxamide]
- EC50 [1]: 0.034 µM
- CC50 [2]: > 25 µM

Compound: CCc1ccc(-c2nn3c(c2C(=O)N[C@H]2N=C(c4ccccc4)c4ccccc4NC2=O)OCC2(CC2)C3)cn1 [Example 180, 2-(6-Ethylpyridin-3-yl)-N-[(3S)-2-oxo-5-phenyl-1,3-dihydro-1,4-benzodiazepin-3-yl]spiro[5,7-dihydropyrazolo[5,1-b][1,3]oxazine-6,1′-cyclopropane]-3-carboxamide]
- EC50 [1]: 0.075 µM
- CC50 [2]: > 25 µM

Compound: CCc1ccc(-c2nn3c(c2C(=O)N[C@H]2N=C(c4ccccc4)c4cccc(F)c4NC2=O)OCC2(CC2)C3)cn1 [Example 181, 2-(6-Ethylpyridin-3-yl)-N-[(3S)-9-fluoro-2-oxo-5-phenyl-1,3-dihydro-1,4-benzodiazepin-3-yl]spiro[5,7-dihydropyrazolo[5,1-b][1,3]oxazine-6,1′-cyclopropane]-3-carboxamide]
- EC50 [1]: 0.042 µM
- CC50 [2]: > 25 µM

Compound: CC(C)NCc1ccc(-c2nn3c(c2C(=O)N[C@H]2N=C(c4ccccc4)c4cccc(F)c4NC2=O)O[C@H](C)CC3)c(F)c1 [Example 183, (5R)-N-[(3S)-9-fluoro-2-oxo-5-phenyl-1,3-dihydro-1,4-benzodiazepin-3-yl]-2-[2-fluoro-4-[(propan-2-ylamino)methyl]phenyl]-5-methyl-6,7-dihydro-5H-pyrazolo[5,1-b][1,3]oxazine-3-carboxamide]
- EC50 [1]: 0.294 µM
- CC50 [2]: > 25 µM

Compound: CS(=O)(=O)CC1COc2c(C(=O)N[C@H]3N=C(c4ccccc4)c4cccc(F)c4NC3=O)c(-c3ccccc3F)nn2C1 (stereo partly drawn) [Example 184, N-[(3S)-9-fluoro-2-oxo-5-phenyl-1,3-dihydro-1,4-benzodiazepin-3-yl]-2-(2-fluorophenyl)-6-(methylsulfonylmethyl)-6,7-dihydro-5H-pyrazolo[5,1-b][1,3]oxazine-3-carboxamide]
- EC50 [1]: 0.3 µM
- CC50 [2]: > 25 µM

Compound: O=C(N[C@H]1N=C(c2ccccc2)c2cccc(F)c2NC1=O)c1c(-c2ccccc2F)nn2c1OCC1(CCC1)C2 [Example 185, 2-(2-Fluorophenyl)-N-[(3S)-9-fluoro-2-oxo-5-phenyl-1,3-dihydro-1,4-benzodiazepin-3-yl]spiro[5,7-dihydropyrazolo[5,1-b][1,3]oxazine-6,1′-cyclobutane]-3-carboxamide]
- EC50 [1]: 0.032 µM
- CC50 [2]: > 25 µM

Compound: O=C(N[C@H]1N=C(c2ccccc2)c2cccc(F)c2NC1=O)c1c(-c2ccccc2F)nn2c1OCC(CN1CCC(F)(F)C1)C2 (stereo partly drawn) [Example 186, 6-[(3,3-Difluoropyrrolidin-1-yl)methyl]-N-[(3S)-9-fluoro-2-oxo-5-phenyl-1,3-dihydro-1,4-benzodiazepin-3-yl]-2-(2-fluorophenyl)-6,7-dihydro-5H-pyrazolo [5,1-b][1,3]oxazine-3-carboxamide]
- EC50 [1]: 0.059 µM
- CC50 [2]: > 25 µM

Compound: O=C(N[C@H]1N=C(c2ccccc2)c2cccc(F)c2NC1=O)c1c(-c2ccccc2F)nn2c1OC(CN1CCCC1)CC2 (stereo partly drawn) [Example 187, N-[(3S)-9-fluoro-2-oxo-5-phenyl-1,3-dihydro-1,4-benzodiazepin-3-yl]-2-(2-fluorophenyl)-5-(pyrrolidin-1-ylmethyl)-6,7-dihydro-5H-pyrazolo[5,1-b][1,3]oxazine-3-carboxamide]
- EC50 [1]: 0.249 µM
- CC50 [2]: > 8.84 µM
